Entries after “also recorded” stand apart in the source; their conditions may differ.
How the values were obtained:
RGS7/Gq = target: T1, RGS7/Gq (Homo sapiens, UniProt P49802+P50148); assay: Co-immunoprecipitation of Gq with RGS7 from transfected Hek 293 cells; format: binding; details: immunoprecipitation blot
T1 sequence (P49802 1-469 isoform P49802-2): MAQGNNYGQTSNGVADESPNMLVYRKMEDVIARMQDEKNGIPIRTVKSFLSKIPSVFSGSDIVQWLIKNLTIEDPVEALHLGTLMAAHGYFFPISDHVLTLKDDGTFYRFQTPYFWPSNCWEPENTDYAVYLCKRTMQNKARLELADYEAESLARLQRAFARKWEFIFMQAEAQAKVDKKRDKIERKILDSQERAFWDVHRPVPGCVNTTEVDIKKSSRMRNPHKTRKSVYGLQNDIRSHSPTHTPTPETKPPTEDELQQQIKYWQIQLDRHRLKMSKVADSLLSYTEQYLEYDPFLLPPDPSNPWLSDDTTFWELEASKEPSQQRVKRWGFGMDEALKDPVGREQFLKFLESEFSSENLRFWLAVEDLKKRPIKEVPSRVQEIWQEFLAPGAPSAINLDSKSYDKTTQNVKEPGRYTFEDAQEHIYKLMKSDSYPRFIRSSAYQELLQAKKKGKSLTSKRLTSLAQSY
T1 sequence (P50148 1-359): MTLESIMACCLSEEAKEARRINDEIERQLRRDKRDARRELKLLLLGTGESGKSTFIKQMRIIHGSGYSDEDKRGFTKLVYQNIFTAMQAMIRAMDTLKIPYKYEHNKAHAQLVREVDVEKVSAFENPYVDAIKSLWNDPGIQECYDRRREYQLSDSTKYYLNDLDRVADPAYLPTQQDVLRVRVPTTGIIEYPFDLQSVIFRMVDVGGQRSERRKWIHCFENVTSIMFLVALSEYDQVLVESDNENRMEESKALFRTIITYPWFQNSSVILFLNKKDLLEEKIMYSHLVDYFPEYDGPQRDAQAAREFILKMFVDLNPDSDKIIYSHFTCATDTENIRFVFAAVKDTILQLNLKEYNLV
T1 sequence (O14775 43-395 partner limits assumed): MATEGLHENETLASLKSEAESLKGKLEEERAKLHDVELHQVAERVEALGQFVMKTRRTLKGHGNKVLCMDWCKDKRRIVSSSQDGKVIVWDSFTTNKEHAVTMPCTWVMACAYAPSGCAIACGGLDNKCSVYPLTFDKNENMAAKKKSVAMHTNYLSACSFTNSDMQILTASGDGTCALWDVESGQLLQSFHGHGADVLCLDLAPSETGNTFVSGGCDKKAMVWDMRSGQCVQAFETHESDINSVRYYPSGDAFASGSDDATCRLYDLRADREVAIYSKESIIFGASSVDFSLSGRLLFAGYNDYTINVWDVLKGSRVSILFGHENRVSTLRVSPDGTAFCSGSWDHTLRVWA
Protocol: Hek 293 cells were transfected with CMV-G alpha qHA, CMV-mycRGS-7 and CMV-Gbeta5. 48 hours later the cells were harvested and lysed. Antibody to the myc epitope was utilized to immunoprecipitate RGS-7 in the presence or absence of ALF4-. The precipitated proteins were split into two fractions and loaded onto gels and western blotted on to nitrocellulose. In FIG. 6, the left blot (1) was probed with anti-myc antibody to detect RGS-7. RGS-7 was immunoprecipitated by the anti-myc antibody in the presence and absence of ALF4-. […] A G alpha q protein band was detected to have associated with RGS-7 and precipitated in the presence of ALF4- (lanes A) but not in the absence of ALF4- (lane B). In the second experiment, RGS-7 was immuno-precipitated again with the Myc epitope to which it was fused and the presence of G alpha q was detected in the presence or absence of ALF4- or different concentrations of Compound III. […] This increase in RGS-7 affinity would be predicted to be the same for other RGS7 family members such as RGS 6,9 and 11, as they have been shown previously to have similar affinities and effects on G alpha q. In addition this assay provides a method for screening for compounds that affect the interaction of RGS proteins and G alpha q.
In FIG. 5B, Compounds I, II and III affect the affinity of Gq and RGS proteins for one another. FIG. 5B is an immunoprecipitation blot of myc tagged RGS which has been probed with an anti hemagglutinin antibody to detect a hemagglutinin tagged Gαq. […] The ability of Compounds I, II and III to increase the affinity of Gq and RGS is a novel mechanism by which one can Gαq activity and such compounds and screens for additional compounds with such activity are useful wherever one desires to antagonize g protein signaling that involves Gαq and RGS proteins. […]

rat bladder strips = assay: Isolated rat bladder strips: inhibition of carbachol-evoked contraction
Protocol: Isolated Rat Bladder Strips
Male rats (Harlan, Sprague Dawley, 250-350 g) were sacrificed by decapitation, the bladder removed and cleaned of connective tissue. Strips of bladder were then cut from the bladder body and each was placed in an organ bath, suspended between a fixed hook and a force transducer, containing oxygenated physiological buffer (composition in mM: NaCl 118.4, KCl 4.7, KH2PO4 1.2, MgSO4 1.3, CaCl2 1.8, glucose 10.1, NaHCO3 25, gassed with 95%O2/5%CO2) and maintained at 37° C. Force generated by the bladder strips was recorded and measured using an AcqKnowledge data acquisition system (AcqKnowledge for MP100WS, Biopac Systems Inc., Goleta, Calif.).
The bladder strips were primed by stimulating them with 10 μM carbachol to evoke a contraction. The strips were then washed multiple times with fresh physiological buffer and allowed to fully relax. Following a period of recovery, the strips were again challenged with 10 μM carbachol to produce a contraction; this contractile response served as the control response. The strips were again washed multiple times and allowed to fully relax (45 minutes). Test compound or vehicle was then added to each organ bath. Following a one hour incubation period, the strips were again stimulated with 10 μM carbachol and the contractile response measured.
The percent inhibition of the carbachol response by the test compounds was calculated by comparing control and post-compound carbachol responses corrected for vehicle effects.

[1] = system: Gq signaling in Hek 293 kidney cells; assay: [Ca2+]i measurement, carbachol-induced calcium signal in HEK 293 cells; format: cell-based, human
Protocol: • 1. HEK 293 or Clonetics primary human bladder smooth muscle cells were plated at a concentration of 7e3 cells/well in Poly-L lysine coated 96 well plates, white with clear bottoms (Costar). • 2. The plates are allowed to attach overnight at 37° C. 5%CO2. The cells were rinsed 2× with Krebs-HEPES buffer and then loaded with 4 uM Fluo4 (Molecular Probes) for 60 minutes in the same buffer containing 1% (wt/vol) Pluronic F-127 and 0.25 mM sulfinpyrazone. • 3. After loading the cells were rinsed 3× with Krebs-HEPES buffer containing 0.5% (wt/vol) BSA (Sigma Chemical) • 4. Buffer alone or buffer containing test compounds, was injected sequentially into separate wells and the fluorescence intensity monitored in a Victor2 96 well plate fluorometer (PE-Wallac). Measurements were taken at 1-s intervals using an excitation wavelength of 485 nm and emissions filter of 535 nm. • 5. Five baseline measurements were taken at 1-s intervals prior to each injection (see FIGS. 4A and 4B).
Calcium assays were run by standard protocols as described above and in Zhu et al., 1998, J. Biol Chem 273:133-142. It is known that calcium signals in response to carbachol have both a Gq and a Go/Gi signaling component. Pertussis toxin is a known inhibitor of Go/Gi signaling in cells. We asked the question if Compound I was inhibiting Gq or Go/Gi signals in Hek 293 kidney cells. […] to block the Go/I but not Gq signals. […] If however Compound I were inhibiting Gq signal specifically, then we would expect the combination of pertussis toxin (hitting Go/Gi) and Gq.

C. elegans = C. elegans compound treatment: neuromuscular and egg-laying phenotypes
Protocol: C. elegans strains were cultured and maintained according to standard procedures (Brenner, 1974; Hodgkin, 1988). All strains were assayed at 20° C. unless otherwise indicated. compound was mixed with killed bacteria slurry (strain OP50, taken through multiple freeze-thaw cycles) to 2× desired final concentration. Adult wildtype (Bristol N2) or mutant hermaphrodites were collected in M9. Worms were mixed 1:1 with compound/bacteria mixture, and plated on peptone-free NGM plates. Plates were allowed to dry, and then placed at 20° C. until assayed. For egg-laying assays, adults were treated overnight with compound. Approximately thirty animals were loaded onto agar pads made on glass slides and examined under Nomarski optics. Animals were scored as egg-laying defective if they contained>comma stage embryos.

Molecule	Affinity of RGS7 and Gq (Gq co-precipitated with myc-RGS-7) (RGS7/Gq)	Relaxation of bladder smooth muscle strips contracted with carbachol (rat bladder strips)	inhibition at 10 µM (rat bladder strips; Rattus norvegicus, 10 μM compound, 1 h incubation, 10 μM carbachol, read-out: Inhibition of the carbachol response)	Carbachol induced calcium influxes [1]	Combined effect with pertussis toxin on carbachol calcium signal [1]	Effect on function of human RGS and Gq signaling proteins via Ca++ signaling [1]	Gq versus Go/Gi specificity of calcium signal inhibition ([1]; carbachol)	Neuromuscular defects (pharyngeal pumping, body movement, egg-laying) (C. elegans)	inhibition at 3 µM (rat bladder strips; Rattus norvegicus, 3 μM compound, 1 h incubation, 10 μM carbachol, read-out: Inhibition of the carbachol response)
Alf4- [reference compound]	increases its affinity with RGS								
O=c1[nH]c(-c2ccc(C(F)(F)F)cc2)nn1-c1cc(Cl)ccc1O [Compound I]	increase the affinity of RGS7 with Gq; also recorded: clearly increase the affinity of Gq for RGS	capable of relaxing strips of bladder smooth muscle	40 to 60%	blocked	cumulative	clearly able to effect the function of Gq and RGS	specifically inhibiting Gq signaling and not Go/Gi	causes neuromuscular defects	
O=c1[nH]c(-c2ccc(Br)s2)nn1-c1cc(Cl)c(Br)cc1O [Compound II, 2-(4-bromo-5-chloro-2-hydroxyphenyl)-2,4-dihydro-5-(5-bromothien-2-yl)-3H-1,2,4-triazol-3-one]	clearly increase the affinity of Gq for RGS			blocked					20 to 40%
